Structures can show the parent of a compound that is named as a salt. Blank lines part the entries; values can stand above or below the compound they belong to.
Tests used:
Format in all cases: physicochemical
[1] = Determination of the dissolution, 2nd experiment (approx. 210 mg in 3 ml solvent, 37° C., approx. 250 rpm, HPLC/UV)
Protocol: (§1) In the following examples, anhydrous Dolutegravir Na as disclosed in WO2010068253 is employed.
(§2) Approx. 210 mg test substance was weighed into a glass vial, followed by addition of 3 ml solvent. A stirring bar was added, the vial was fixed in a water bath at 37° C. and the suspension was stirred with approx. 250 rpm. After 5, 15 and 60 min, samples were withdrawn, filtered through a 0.2 μm disposable filter, 50 μl of the clear filtrate were diluted with 950 μl DMSO and 2 μl thereof were analyzed by HPLC/UV.
(§3) HPLC/UV-Method for Quantification of Dolutegravir • Instrument: Agilent 1200 (G3324) • Method: DOLUTEGRAVIR-SOL-G3324.M • Column: YMC Triart C18, 100*3.0 mm, 3.0μ • Flow: 0.6 ml/min. • Temperature: 40.0° C. • Eluent • A: acetonitrile • B: 0.2% formic acid+0.1% Heptafluorobutyric acid (HFBA)
(§4) A calibration curve was established by linear regression analysis of concentration/peak area data pairs obtained by twofold analysis of a set of calibration solutions containing dolutegravir at concentrations between 10 μg/ml and 1,000 μg/ml. In case that the peak area of dolutegravir in an analyzed sample exceeded the upper limit of the calibration range, the sample was diluted and re-analyzed.

[2] = Storage stability of solid state forms (polymorphic conversion, XRPD)
[3] = Determination of the dissolution, 1st experiment (approx. 350 mg in 5 ml solvent, 37° C., approx. 500 rpm, HPLC/UV); conditions: for concentration: 37° C.
Protocol: as §1
as §2, with “Approx. 350” for “Approx. 210”, “of 5” for “of 3”, “approx. 500” for “approx. 250”, “After 1 h” for “After 5, 15”, “and 24 h,” for “and 60 min,”
as §3, §4

[4] = Dissolution profile of tablet formulations (900 ml 0.1 N HCl, paddle, 100 rpm, 37° C.); conditions: tablets, FIG. 24
Protocol: The dissolution profile of the above potassium salt formulation in 900 ml of 0.1 N HCl, paddle (no sinker) at 100 rpm, 37° C. was tested. An aqueous solution comprising Pharmacoat 603 was prepared. The active, Granulac 200, SDS, Avicel PH 101 and Ac-Di-Sol were granulated with the before prepared solution. The obtained granules were sieved through 1650 μm mesh size and subsequently dried at 40° C. After sieving the dried granules through 630 μm mesh size, Prosolv and Ac-Di-Sol were added. The mixture was blended for 10 minutes in a Turbula […] tumble mixer. After addition of Magnesium stearate, blending was continued for 3 minutes. Finally, the blend was compressed into tablets on an eccentric press Ek0 with a 9 mm tablet punch. The dissolution profile of the above sodium salt formulation in 900 ml of 0.1 N HCl, paddle (no sinker) at 100 rpm, 37° C. was tested.

[5] = solvent 50 mM KH2PO4, pH 6.8, 5 min, potassium salt
[6] = solvent 50 mM KH2PO4, pH 6.8, 15 min, potassium salt
[7] = solvent 50 mM KH2PO4, pH 6.8, 60 min, potassium salt
[8] = solvent 0.1 N HCl, 5 min, potassium salt
[9] = solvent 0.1 N HCl, 15 min, potassium salt
[10] = solvent 0.1 N HCl, 60 min, potassium salt
[11] = solvent demineralized water, 5 min, potassium salt
[12] = solvent demineralized water, 15 min, potassium salt
[13] = solvent demineralized water, 60 min, potassium salt

SMILES: C[C@@H]1CCO[C@H]2Cn3cc(C(=O)NCc4ccc(F)cc4F)c(=O)c(O)c3C(=O)N12 [Dolutegravir-K (amorphous), Dolutegravir potassium salt]
concentration [1, 5]: 39.1 mg/mL | concentration [1, 6]: 40.9 mg/mL | concentration [1, 7]: 60.1 mg/mL | concentration [1, 8]: 0.30 mg/mL | concentration [1, 9]: 21.26 mg/mL | concentration [1, 10]: 15.40 mg/mL | concentration [1, 11]: 55.6 mg/mL | concentration [1, 12]: 55.1 mg/mL | concentration [1, 13]: 62.3 mg/mL | stable under storage condition (time) ([2]; 40° C./75% RH): at least 12 weeks

SMILES: C[C@@H]1CCO[C@H]2Cn3cc(C(=O)NCc4ccc(F)cc4F)c(=O)c(O)c3C(=O)N12 [Dolutegravir-K (Form VI), Dolutegravir potassium salt]
concentration ([3]; solvent 20 mM Sodium acetate (NaAc) pH 4.5, 1 h, potassium salt): 21.77 mg/mL | concentration ([3]; solvent 20 mM Sodium acetate (NaAc) pH 4.5, 24 h, potassium salt): 16.93 mg/mL | concentration ([3]; solvent 50 mM KH2PO4 pH 6.8, 1 h, potassium salt): 32.58 mg/mL | concentration ([3]; solvent 50 mM KH2PO4 pH 6.8, 24 h, potassium salt): 33.44 mg/mL | concentration ([3]; solvent 0.1M HCl pH1.2, 1 h, potassium salt): 20.35 mg/mL | concentration ([3]; solvent 0.1M HCl pH1.2, 24 h, potassium salt): 20.27 mg/mL

SMILES: C[C@@H]1CCO[C@H]2Cn3cc(C(=O)NCc4ccc(F)cc4F)c(=O)c(O)c3C(=O)N12 [Dolutegravir-K (Form VII), Dolutegravir potassium salt]
concentration [1, 5]: 22.0 mg/mL | concentration [1, 6]: 23.9 mg/mL | concentration [1, 7]: 23.3 mg/mL | concentration [1, 8]: 0.08 mg/mL | concentration [1, 9]: 23.78 mg/mL | concentration [1, 10]: 25.93 mg/mL | concentration [1, 11]: 39.5 mg/mL | concentration [1, 12]: 44.0 mg/mL | concentration [1, 13]: 44.1 mg/mL | stable under storage conditions (time) ([2]; 25° C. and 60% RH, 30° C. and 65% RH and 40° C. and 75% RH): at least 8 weeks

Now from value to compound:

stable upon storage (time) ([2]; 45° C./75% relative humidity): at least 8 weeks
SMILES: C[C@@H]1CCO[C@H]2Cn3cc(C(=O)NCc4ccc(F)cc4F)c(=O)c(O)c3C(=O)N12 [Dolutegravir potassium form IV, Dolutegravir potassium salt]

concentration ([3]; solvent 20 mM Sodium acetate (NaAc) pH 4.5, 1 h): 0.595 mg/mL | concentration ([3]; solvent 20 mM Sodium acetate (NaAc) pH 4.5, 24 h): 0.634 mg/mL | concentration ([3]; solvent 50 mM KH2PO4 pH 6.8, 1 h): 0.894 mg/mL | concentration ([3]; solvent 50 mM KH2PO4 pH 6.8, 24 h): 0.918 mg/mL | concentration ([3]; solvent 0.1M HCl pH1.2, 1 h): 0.084 mg/mL | concentration ([3]; solvent 0.1M HCl pH1.2, 24 h): 0.412 mg/mL | concentration ([1]; solvent 50 mM KH2PO4, pH 6.8, 5 min): 0.27 mg/mL | concentration ([1]; solvent 50 mM KH2PO4, pH 6.8, 15 min): 1.19 mg/mL | concentration ([1]; solvent 50 mM KH2PO4, pH 6.8, 60 min): 1.24 mg/mL | concentration ([1]; solvent 0.1 N HCl, 5 min, listed as Dolutegravir-Na (anhydrous)): 0.33 mg/mL | concentration ([1]; solvent 0.1 N HCl, 15 min, listed as Dolutegravir-Na (anhydrous)): 0.42 mg/mL | concentration ([1]; solvent 0.1 N HCl, 60 min, listed as Dolutegravir-Na (anhydrous)): 0.40 mg/mL | concentration ([1]; solvent demineralized water, 5 min): 3.30 mg/mL | concentration ([1]; solvent demineralized water, 15 min): 3.43 mg/mL | concentration ([1]; solvent demineralized water, 60 min): 3.50 mg/mL
SMILES: C[C@@H]1CCO[C@H]2Cn3cc(C(=O)NCc4ccc(F)cc4F)c(=O)c(O)c3C(=O)N12 [Dolutegravir-Na, reference compound]

dissolution compared to the sodium salt ([3]; under certain conditions as depicted in Example 9): improved dissolution | dissolution rate of a pharmaceutical composition compared to the sodium salt [4]: faster and/or higher dissolution rate
SMILES: C[C@@H]1CCO[C@H]2Cn3cc(C(=O)NCc4ccc(F)cc4F)c(=O)c(O)c3C(=O)N12 [Dolutegravir potassium salt]
